Test system: immune cell populations in blood and MLN
Assay: Immunophenotyping of blood and mesenteric lymph nodes by flow cytometry after DSS challenge
Assay type: in vivo, mice
Protocol: MLNs were excised and crushed with frosted slides, washed with PBS, and resuspended in PBS and enumerated with a Coulter Counter (Beckman Coulter, Fullerton, Calif.). MLN-derived cells (2×10^5 cells/well) or whole blood (10 μL/well) were seeded onto 96-well plates, centrifuged at 4° C. at 3000 rpm for 4 minutes, and washed with PBS containing 5% serum and 0.09% sodium azide (FACS buffer). […] For lymphocyte assessment, cells were incubated with anti-CD4-Alexa Fluor 700 (2 μg/mL; BD Pharmingen), anti-CD8-PerCp-Cy5.5 (2 μg/mL, eBioscience), CD3 PE-Cy5 (2 μg/mL; BD Pharmingen), anti-CD25-FITC (BD), anti-CTLA-4 FITC (BD), or anti-FoxP3-PE (2 μg/mL, eBioscience) as previously shown (77). Flow results were computed with a BD LSR II flow cytometer and data analyses was performed with FACS Diva software (BD).

Compound: CC1=CC(=O)CC(C)(C)C1(O)/C=C/C(C)=C\C(=O)O (racemic) [ABA, abscisic acid]
- CTLA-4 expression on CD4+ T cells in blood (ABA-fed wild-type mice): significantly increased
- percent of CD4+CD25+FoxP3+ regulatory T cells (MLN): significantly increased
- effect on F4/80+CD11b+ monocytes (PPAR γ-deficient (CD4cre) mice): absent
- increase of CTLA-4 expression on CD4+ T cells in blood (lack of PPAR γ (CD4cre mice)): abrogated
- F4/80+CD11b+ monocytes (wt mice, blood): significantly decreased
